Patent US20260109713A1, “SIRTUIN MODULATING COMPOUNDS, INCLUDING SIRTUIN ACTIVATING COMPOUNDS, AND APPLICATIONS THEREOF” (CODAGEN BIOSCIENCES, INC., priority 2022, published 2026)

Assays:
Type in all cases: biochemical
hSIRT3 = target: T1, hSIRT3 (Homo sapiens, UniProt Q9NTG7); assay: Fluorescence-based SIRT3 deacetylation assay using FdL2 peptide, steady state (Conditions I); details: triplicate
T1 construct: His-tag; purchased Enzo Life Sciences (Farmingdale, NY)
T1 sequence (Q9NTG7 102-399): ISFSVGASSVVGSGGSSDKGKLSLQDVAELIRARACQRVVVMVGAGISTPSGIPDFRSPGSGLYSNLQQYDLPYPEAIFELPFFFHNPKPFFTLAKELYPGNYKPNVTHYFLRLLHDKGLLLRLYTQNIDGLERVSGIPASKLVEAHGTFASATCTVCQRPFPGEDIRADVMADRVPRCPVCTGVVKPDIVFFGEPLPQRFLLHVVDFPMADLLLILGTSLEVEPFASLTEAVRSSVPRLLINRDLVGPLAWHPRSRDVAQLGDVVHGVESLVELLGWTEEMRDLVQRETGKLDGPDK
Description: FIG. 4. Effect of top ranked hit compounds on Sirt3 deacetylation activity.
The 6 top ranked compounds from DEL screening were tested modulation effect of SIRT3 using fluorescence-based assay (FIG. 4).
The enzymatic reactions were carried out similar to as described above. The reaction was terminated by adding the 1× developer 2 mM NAM solution and measured the fluorescence on TECAN microplate reader. The raw data were fitted to the defined model equations using GraphPad Prism (GraphPad Software, Inc, CA).

hSIRT3 102-399 [1] = target: T2, hSIRT3 102-399 (Homo sapiens, UniProt Q9NTG7); assay: HPLC assay of hSIRT3 102-399 deacetylation of MnSOD peptide, Conditions I (steady state): 1000 μM NAD+, 50 μM MnSOD peptide; details: for Conditions I, Effect: Conditions I (steady state), HPLC/FdL; for Activity test, Conditions I, HPLC: Conditions I: 1000 μM NAD+, 50 μM MnSOD peptide, 50 μM compound, 30 min, triplicate, same values as % control in Table 3
T2 construct: His-tag; purchased Enzo Life Sciences (Farmingdale, NY)
T2 sequence (Q9NTG7 102-399): T1 sequence (Q9NTG7 102-399)
Description: […] The peptide product and substrate were resolved using HPLC (reversed-phase C18 HPLC Column). Solvent A was composed of 90% HPLC grade water and 10% acetonitrile with 0.05% (v/v) TFA. Solvent B was composed of acetonitrile with 0.02% (v/v) TFA. […] Then returned to the starting conditions (0% B) within 5 min. Solvent A percentage (100%) was maintained at 100% for 5 additional minutes (36 min total run time).

hSIRT3 102-399 [2] = target: T2, hSIRT3 102-399; assay: HPLC assay of hSIRT3 102-399 deacetylation of MnSOD peptide, Conditions II (non-steady state): 50 μM NAD+, 600 μM peptide; details: for Conditions II, Effect: Conditions II (non-steady state); for Activity test, Conditions II, HPLC: Conditions II: 50 μM NAD+, 600 μM peptide, 10 μM compound, triplicate
Description: FIG. 5. Sirt3 activation by top ranked hit compounds.
The deacetylation activity of SIRT3 was detected in the presence of 10 μM compound of AA8AC40 under non-steady state condition (FIG. 5) using HPLC-based assay. […] The test compound is expected to experience three phases (presteady state, steady-state, and post steady state) during the enzymatic reaction. The pre and post-steady state can be considered as non-steady state, in which the enzyme concentration vs. NAD^+ substrate concentration ratio is high. Depending on the initial ratio of enzyme to limiting substrate in the system (and the ratio of enzyme to test compound concentration), the net effect of test compound over the course of the reaction can be either inhibitory or activating, with activation occurring if this ratio is above a threshold value.
Enzymatic reactions included either 1000 μM NAD^+ and 50 μM MnSOD peptide (Conditions I) or 50 μM NAD^+ and 600 μM peptide substrate (Conditions II) in presence of hit compounds (50 μM (Conditions I) or 10 μM (Conditions II)), in a HDAC buffer (50 mM TRIS-HCl, pH 8.0, containing 137 mM sodium chloride, 2.7 mM potassium chloride, and 1 mM magnesium chloride) dimethyl sulfoxide solution 95/5. […] The reaction was terminated by adding a stopping solution (final concentration of 2% TFA, 5 mM Nicotinamide). The peptide product and substrate were resolved using HPLC (reversed-phase C18 HPLC Column). Solvent A was composed of 90% HPLC grade water and 10% acetonitrile with 0.05% (v/v) TFA. Solvent B was composed of acetonitrile with 0.02% (v/v) TFA. […] Then returned to the starting conditions (0% B) within 5 min. Solvent A percentage (100%) was maintained at 100% for 5 additional minutes (36 min total run time).

Row | Activity test, Conditions I, FdL (hSIRT3) | Conditions I, Effect (hSIRT3 102-399 [1]) | Activity test, Conditions I, HPLC (hSIRT3 102-399 [1]) | % Control in vitro modulation, Steady-state (hSIRT3 102-399 [1]; steady state, 10 μM modulator) [% Control] | Conditions II, Effect (hSIRT3 102-399 [2]) | Activity test, Conditions II, HPLC (hSIRT3 102-399 [2]) | % Control in vitro modulation, Non-Steady state (hSIRT3 102-399 [2]; non-steady state, 10 μM modulator) [% Control] | SMILES
1 | 88.1 | Inhibitor | 98.2 | 98.2 | Slight Activator | 103.1 | 103.1 | O=C1NCCN(C(=O)c2cccc(-c3cnn4ccccc34)c2)C1CCO (stereo not drawn) [FIG. 227]
2 | 101.2 | Slight Activator | 106.7 | – | Activator | 108.1 | – | Nc1nc2n(n1)C(c1ccc(OCc3ccccc3)cc1)CC(c1ccc(Cl)cc1)N2 (stereo not drawn) [FIG. 14]
